Reference: BindingDB's records for doi:10.1002/cbic.200500089 (Progen Industries, 2005)

How the values were obtained:
[1] = molecular target: Fibroblast growth factor 2 (Homo sapiens, UniProt P09038); assay: Binding Assay; settings: pH 7.4
Description: (§1) Human FGF-1 and FGF-2 were purchased from R&D Systems, Inc. and supplied as protein (ug) dissolved in bovine serum albumin (BSA, 50ug). Surface plasmon resonance (SPR) measurements were performed on a BIA-core 3000 from BIAcore, Uppsala, Sweden and operated by the BIAcore control software.

[2] = molecular target: Fibroblast growth factor 1 (Homo sapiens, UniProt P05230); assay: Binding Assay; settings: pH 7.4
Description: as §1

Fibroblast growth factor 1, sequence (P05230 whole entry): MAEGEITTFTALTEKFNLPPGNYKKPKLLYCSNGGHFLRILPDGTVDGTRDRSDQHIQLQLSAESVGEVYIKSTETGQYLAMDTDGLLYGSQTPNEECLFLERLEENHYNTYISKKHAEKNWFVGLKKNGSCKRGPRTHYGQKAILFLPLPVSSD
Fibroblast growth factor 2, sequence (P09038 143-288 limits assumed): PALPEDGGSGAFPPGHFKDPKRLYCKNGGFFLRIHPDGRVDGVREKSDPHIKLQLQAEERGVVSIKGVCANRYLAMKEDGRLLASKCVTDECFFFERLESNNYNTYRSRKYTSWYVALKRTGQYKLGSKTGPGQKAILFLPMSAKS

SMILES | Kd [1] [nM] | Kd [2] [nM]
O=S(=O)(O)O[C@H]1[C@H](OS(=O)(=O)O)[C@@H](N(CCCN([C@H]2C=C[C@@H](OS(=O)(=O)O)[C@@H](OS(=O)(=O)O)[C@@H]2OS(=O)(=O)O)[C@H]2C=C[C@@H](OS(=O)(=O)O)[C@@H](OS(=O)(=O)O)[C@@H]2OS(=O)(=O)O)[C@H]2C=C[C@@H](OS(=O)(=O)O)[C@@H](OS(=O)(=O)O)[C@@H]2OS(=O)(=O)O)C=C[C@H]1OS(=O)(=O)O [Linked sulfated tetracyclitol, 3] | 248 | 7.2
O=S(=O)(O)O[C@H]1[C@H](OS(=O)(=O)O)[C@@H](N(CCN([C@H]2C=C[C@@H](OS(=O)(=O)O)[C@@H](OS(=O)(=O)O)[C@@H]2OS(=O)(=O)O)[C@H]2C=C[C@@H](OS(=O)(=O)O)[C@@H](OS(=O)(=O)O)[C@@H]2OS(=O)(=O)O)[C@H]2C=C[C@@H](OS(=O)(=O)O)[C@@H](OS(=O)(=O)O)[C@@H]2OS(=O)(=O)O)C=C[C@H]1OS(=O)(=O)O [Linked sulfated tetracyclitol, 2] | 1100 | 20.7
O=S(=O)(O)O[C@H]1[C@H](OS(=O)(=O)O)[C@@H](N(CCCCCCCCCCN([C@H]2C=C[C@@H](OS(=O)(=O)O)[C@@H](OS(=O)(=O)O)[C@@H]2OS(=O)(=O)O)[C@H]2C=C[C@@H](OS(=O)(=O)O)[C@@H](OS(=O)(=O)O)[C@@H]2OS(=O)(=O)O)[C@H]2C=C[C@@H](OS(=O)(=O)O)[C@@H](OS(=O)(=O)O)[C@@H]2OS(=O)(=O)O)C=C[C@H]1OS(=O)(=O)O [Linked sulfated tetracyclitol, 10] | 448 | 115
O=S(=O)(O)O[C@H]1[C@H](OS(=O)(=O)O)[C@@H](N(CCCCCCCCCN([C@H]2C=C[C@@H](OS(=O)(=O)O)[C@@H](OS(=O)(=O)O)[C@@H]2OS(=O)(=O)O)[C@H]2C=C[C@@H](OS(=O)(=O)O)[C@@H](OS(=O)(=O)O)[C@@H]2OS(=O)(=O)O)[C@H]2C=C[C@@H](OS(=O)(=O)O)[C@@H](OS(=O)(=O)O)[C@@H]2OS(=O)(=O)O)C=C[C@H]1OS(=O)(=O)O [Linked sulfated tetracyclitol, 9] | 194 | 119

Compounds with a lower Kd [1], results first:

Kd [1] [nM] | Kd [2] [nM] | SMILES
148 | 29.8 | O=S(=O)(O)O[C@H]1[C@H](OS(=O)(=O)O)[C@@H](N(CCCCCN([C@H]2C=C[C@@H](OS(=O)(=O)O)[C@@H](OS(=O)(=O)O)[C@@H]2OS(=O)(=O)O)[C@H]2C=C[C@@H](OS(=O)(=O)O)[C@@H](OS(=O)(=O)O)[C@@H]2OS(=O)(=O)O)[C@H]2C=C[C@@H](OS(=O)(=O)O)[C@@H](OS(=O)(=O)O)[C@@H]2OS(=O)(=O)O)C=C[C@H]1OS(=O)(=O)O [Linked sulfated tetracyclitol, 5]
135 | 39 | O=S(=O)(O)O[C@H]1[C@H](OS(=O)(=O)O)[C@@H](N(CCCCCCN([C@H]2C=C[C@@H](OS(=O)(=O)O)[C@@H](OS(=O)(=O)O)[C@@H]2OS(=O)(=O)O)[C@H]2C=C[C@@H](OS(=O)(=O)O)[C@@H](OS(=O)(=O)O)[C@@H]2OS(=O)(=O)O)[C@H]2C=C[C@@H](OS(=O)(=O)O)[C@@H](OS(=O)(=O)O)[C@@H]2OS(=O)(=O)O)C=C[C@H]1OS(=O)(=O)O [Linked sulfated tetracyclitol, 6]
108 | 40.4 | O=S(=O)(O)O[C@H]1[C@H](OS(=O)(=O)O)[C@@H](N(CCCCCCCCN([C@H]2C=C[C@@H](OS(=O)(=O)O)[C@@H](OS(=O)(=O)O)[C@@H]2OS(=O)(=O)O)[C@H]2C=C[C@@H](OS(=O)(=O)O)[C@@H](OS(=O)(=O)O)[C@@H]2OS(=O)(=O)O)[C@H]2C=C[C@@H](OS(=O)(=O)O)[C@@H](OS(=O)(=O)O)[C@@H]2OS(=O)(=O)O)C=C[C@H]1OS(=O)(=O)O [Linked sulfated tetracyclitol, 8]
90 | 8 | O=S(=O)(O)O[C@H]1[C@H](OS(=O)(=O)O)[C@@H](N(CCCCCCCN([C@H]2C=C[C@@H](OS(=O)(=O)O)[C@@H](OS(=O)(=O)O)[C@@H]2OS(=O)(=O)O)[C@H]2C=C[C@@H](OS(=O)(=O)O)[C@@H](OS(=O)(=O)O)[C@@H]2OS(=O)(=O)O)[C@H]2C=C[C@@H](OS(=O)(=O)O)[C@@H](OS(=O)(=O)O)[C@@H]2OS(=O)(=O)O)C=C[C@H]1OS(=O)(=O)O [Linked sulfated tetracyclitol, 7]
161 | 25.4 | O=S(=O)(O)O[C@H]1[C@H](OS(=O)(=O)O)[C@@H](N(CCCCN([C@H]2C=C[C@@H](OS(=O)(=O)O)[C@@H](OS(=O)(=O)O)[C@@H]2OS(=O)(=O)O)[C@H]2C=C[C@@H](OS(=O)(=O)O)[C@@H](OS(=O)(=O)O)[C@@H]2OS(=O)(=O)O)[C@H]2C=C[C@@H](OS(=O)(=O)O)[C@@H](OS(=O)(=O)O)[C@@H]2OS(=O)(=O)O)C=C[C@H]1OS(=O)(=O)O [Linked sulfated tetracyclitol, 4]
